In ChEMBL document CHEMBL5465560, “Selectivity Literature for EUbOPEN Chemogenomic Library” (2024):
Each block holds one compound with its values, some of them ahead of it.

Tests used:
[1] = system: Serine/threonine-protein kinase B-raf (Homo sapiens), P15056 [V600E]; conditions: at 10 µM
[2] = biological target: 5-hydroxytryptamine receptor 5A (Homo sapiens) (UniProt P47898); assay: Selectivity interaction (GPCR panel (PDSP screen)) EUB0001079a HTR5A; conditions: at 10 µM
[3] = biological target: Serine/threonine-protein kinase 24 (Homo sapiens) (UniProt Q9Y6E0); assay: Selectivity interaction (ActivX KiNativ screen (ex vivo kinase selectivity in human PBMCs)) EUB0001619a STK24; format: cell-based; conditions: PBMC, at 1 µM
[4] = biological target: Tyrosine-protein kinase JAK2 (Homo sapiens, UniProt O60674); assay: Selectivity interaction (NanoBRET assay (HEK293T cells)) EUB0001558a JAK2; format: cell-based, HEK-293T
[5] = biological target: Ribosomal protein S6 kinase beta-1 (Homo sapiens, UniProt P23443); assay: Selectivity interaction (KinomeScan (DiscoverX)) EUB0000595a RPS6KB1; conditions: at 10 µM
Chain of Ribosomal protein S6 kinase beta-1 (P23443 whole entry, looked up): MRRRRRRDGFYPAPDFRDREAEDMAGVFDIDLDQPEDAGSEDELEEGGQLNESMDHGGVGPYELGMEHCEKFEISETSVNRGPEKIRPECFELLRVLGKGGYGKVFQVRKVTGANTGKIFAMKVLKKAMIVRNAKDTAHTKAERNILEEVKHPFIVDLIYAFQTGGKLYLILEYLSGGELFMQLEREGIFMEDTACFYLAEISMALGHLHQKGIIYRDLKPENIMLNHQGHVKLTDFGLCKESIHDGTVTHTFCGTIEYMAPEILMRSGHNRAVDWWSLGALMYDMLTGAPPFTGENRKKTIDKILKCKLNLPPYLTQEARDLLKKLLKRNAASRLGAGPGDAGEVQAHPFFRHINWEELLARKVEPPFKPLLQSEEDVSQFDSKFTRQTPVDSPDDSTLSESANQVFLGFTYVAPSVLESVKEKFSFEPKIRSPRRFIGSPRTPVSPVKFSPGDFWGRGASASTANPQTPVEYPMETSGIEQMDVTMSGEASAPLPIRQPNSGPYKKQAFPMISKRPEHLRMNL

[6] = biological target: T1, Tyrosine-protein kinase Mer (Homo sapiens) (UniProt Q12866); assay: Selectivity interaction (KinomeScan (DiscoverX)) EUB0000595a MERTK; conditions: at 10 µM
T1 sequence (whole entry): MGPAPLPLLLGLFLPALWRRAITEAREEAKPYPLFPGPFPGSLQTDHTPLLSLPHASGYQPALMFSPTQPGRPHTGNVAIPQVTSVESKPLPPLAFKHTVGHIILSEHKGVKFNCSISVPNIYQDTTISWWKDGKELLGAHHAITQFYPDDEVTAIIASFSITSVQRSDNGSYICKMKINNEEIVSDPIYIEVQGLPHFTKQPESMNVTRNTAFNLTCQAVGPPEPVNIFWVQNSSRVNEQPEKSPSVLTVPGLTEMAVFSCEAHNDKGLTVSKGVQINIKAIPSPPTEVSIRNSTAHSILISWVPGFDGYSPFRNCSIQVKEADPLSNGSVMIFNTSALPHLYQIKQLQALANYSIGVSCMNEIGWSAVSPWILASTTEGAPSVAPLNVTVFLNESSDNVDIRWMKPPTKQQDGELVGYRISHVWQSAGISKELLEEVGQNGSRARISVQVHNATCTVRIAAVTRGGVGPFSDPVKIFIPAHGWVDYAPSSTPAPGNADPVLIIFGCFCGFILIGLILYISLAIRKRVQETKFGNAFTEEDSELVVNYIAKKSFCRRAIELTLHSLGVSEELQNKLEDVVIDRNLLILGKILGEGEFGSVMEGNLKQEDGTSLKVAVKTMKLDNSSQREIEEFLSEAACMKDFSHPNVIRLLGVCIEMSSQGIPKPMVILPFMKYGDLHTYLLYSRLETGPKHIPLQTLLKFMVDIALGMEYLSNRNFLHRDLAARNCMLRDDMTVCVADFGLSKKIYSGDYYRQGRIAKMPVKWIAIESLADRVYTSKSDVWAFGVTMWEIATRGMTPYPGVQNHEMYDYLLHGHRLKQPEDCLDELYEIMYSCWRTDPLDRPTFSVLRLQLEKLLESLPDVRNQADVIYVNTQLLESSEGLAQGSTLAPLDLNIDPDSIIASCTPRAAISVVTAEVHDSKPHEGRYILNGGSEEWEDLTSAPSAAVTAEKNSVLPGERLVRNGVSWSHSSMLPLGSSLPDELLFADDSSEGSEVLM

[7] = biological target: Tyrosine-protein kinase Fyn (Homo sapiens) (UniProt P06241); assay: Selectivity interaction (ActivX KiNativ screen (kinase selectivity in THP-1 cell lysates)) EUB0000639a FYN; format: subcellular; conditions: lysate, at 0.01 µM
Chain of Tyrosine-protein kinase Fyn (Homo sapiens) (P06241 2-537 limits assumed): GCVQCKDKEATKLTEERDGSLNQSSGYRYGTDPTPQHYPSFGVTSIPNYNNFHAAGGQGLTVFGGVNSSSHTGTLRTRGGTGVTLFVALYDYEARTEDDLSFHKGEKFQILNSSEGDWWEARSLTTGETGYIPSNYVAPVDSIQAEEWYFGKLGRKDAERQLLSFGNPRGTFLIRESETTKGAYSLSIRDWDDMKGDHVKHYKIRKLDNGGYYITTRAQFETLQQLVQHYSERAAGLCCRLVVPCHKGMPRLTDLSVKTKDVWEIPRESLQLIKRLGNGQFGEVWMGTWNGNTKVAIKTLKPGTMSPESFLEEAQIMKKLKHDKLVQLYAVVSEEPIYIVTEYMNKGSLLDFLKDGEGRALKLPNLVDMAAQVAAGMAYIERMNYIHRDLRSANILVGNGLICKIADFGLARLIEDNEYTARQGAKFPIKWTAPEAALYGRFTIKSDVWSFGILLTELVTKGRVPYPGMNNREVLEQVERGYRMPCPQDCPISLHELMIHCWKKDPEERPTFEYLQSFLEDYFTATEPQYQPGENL

[8] = biological target: Tyrosine-protein kinase Lyn (Homo sapiens, UniProt P07948); assay: Selectivity interaction (ActivX KiNativ screen (kinase selectivity in THP-1 cell lysates)) EUB0000639a LYN; format: subcellular; conditions: lysate, at 0.04 µM
[9] = biological target: Serine/threonine-protein kinase MARK1 (Homo sapiens) (UniProt Q9P0L2); assay: Selectivity interaction (KinomeScan (DiscoverX)) EUB0000229b MARK1; conditions: at 10 µM
Chain of Serine/threonine-protein kinase MARK1 (Homo sapiens) (Q9P0L2 whole entry, looked up): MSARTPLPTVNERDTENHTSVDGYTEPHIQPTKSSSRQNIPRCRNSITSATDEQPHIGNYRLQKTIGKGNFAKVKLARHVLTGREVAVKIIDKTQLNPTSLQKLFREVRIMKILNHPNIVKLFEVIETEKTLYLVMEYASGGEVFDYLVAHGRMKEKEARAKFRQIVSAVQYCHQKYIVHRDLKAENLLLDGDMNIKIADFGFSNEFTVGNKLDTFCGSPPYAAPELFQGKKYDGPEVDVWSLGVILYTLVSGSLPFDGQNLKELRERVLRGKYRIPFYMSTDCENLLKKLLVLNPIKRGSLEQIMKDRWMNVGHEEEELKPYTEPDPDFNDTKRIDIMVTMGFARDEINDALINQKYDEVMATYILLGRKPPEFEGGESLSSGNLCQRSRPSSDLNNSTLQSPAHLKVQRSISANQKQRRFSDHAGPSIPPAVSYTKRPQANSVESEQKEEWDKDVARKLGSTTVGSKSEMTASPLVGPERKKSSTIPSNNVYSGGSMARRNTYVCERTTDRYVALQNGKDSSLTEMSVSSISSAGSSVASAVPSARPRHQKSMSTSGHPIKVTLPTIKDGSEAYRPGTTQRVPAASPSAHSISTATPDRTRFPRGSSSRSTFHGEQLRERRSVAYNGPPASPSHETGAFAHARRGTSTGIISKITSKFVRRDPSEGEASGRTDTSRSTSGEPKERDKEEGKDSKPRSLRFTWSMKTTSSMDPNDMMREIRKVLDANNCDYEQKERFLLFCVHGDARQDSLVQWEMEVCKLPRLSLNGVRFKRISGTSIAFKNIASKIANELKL

[10] = biological target: Calcium/calmodulin-dependent protein kinase type 1D (Homo sapiens) (UniProt Q8IU85); assay: Selectivity interaction (KinomeScan (DiscoverX)) EUB0001049a CAMK1D; conditions: at 1 µM
Chain of Calcium/calmodulin-dependent protein kinase type 1D (Homo sapiens) (Q8IU85 whole entry, looked up): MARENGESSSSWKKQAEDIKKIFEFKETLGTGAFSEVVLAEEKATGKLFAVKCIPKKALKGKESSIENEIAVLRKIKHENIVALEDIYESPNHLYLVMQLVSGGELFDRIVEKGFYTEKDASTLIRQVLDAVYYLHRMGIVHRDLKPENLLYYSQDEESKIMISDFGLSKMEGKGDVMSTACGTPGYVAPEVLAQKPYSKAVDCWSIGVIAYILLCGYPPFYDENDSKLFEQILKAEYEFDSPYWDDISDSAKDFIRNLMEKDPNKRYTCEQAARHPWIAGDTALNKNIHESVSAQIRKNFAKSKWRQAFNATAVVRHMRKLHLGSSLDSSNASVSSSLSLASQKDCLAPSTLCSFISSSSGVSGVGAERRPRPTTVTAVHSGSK

[11] = biological target: Hepatocyte growth factor receptor (Homo sapiens, UniProt P08581); assay: Selectivity interaction (Kinase panel (33PanQinase(R) Activity Assay)) EUB0000877a MET
Chain of Hepatocyte growth factor receptor (P08581 whole entry): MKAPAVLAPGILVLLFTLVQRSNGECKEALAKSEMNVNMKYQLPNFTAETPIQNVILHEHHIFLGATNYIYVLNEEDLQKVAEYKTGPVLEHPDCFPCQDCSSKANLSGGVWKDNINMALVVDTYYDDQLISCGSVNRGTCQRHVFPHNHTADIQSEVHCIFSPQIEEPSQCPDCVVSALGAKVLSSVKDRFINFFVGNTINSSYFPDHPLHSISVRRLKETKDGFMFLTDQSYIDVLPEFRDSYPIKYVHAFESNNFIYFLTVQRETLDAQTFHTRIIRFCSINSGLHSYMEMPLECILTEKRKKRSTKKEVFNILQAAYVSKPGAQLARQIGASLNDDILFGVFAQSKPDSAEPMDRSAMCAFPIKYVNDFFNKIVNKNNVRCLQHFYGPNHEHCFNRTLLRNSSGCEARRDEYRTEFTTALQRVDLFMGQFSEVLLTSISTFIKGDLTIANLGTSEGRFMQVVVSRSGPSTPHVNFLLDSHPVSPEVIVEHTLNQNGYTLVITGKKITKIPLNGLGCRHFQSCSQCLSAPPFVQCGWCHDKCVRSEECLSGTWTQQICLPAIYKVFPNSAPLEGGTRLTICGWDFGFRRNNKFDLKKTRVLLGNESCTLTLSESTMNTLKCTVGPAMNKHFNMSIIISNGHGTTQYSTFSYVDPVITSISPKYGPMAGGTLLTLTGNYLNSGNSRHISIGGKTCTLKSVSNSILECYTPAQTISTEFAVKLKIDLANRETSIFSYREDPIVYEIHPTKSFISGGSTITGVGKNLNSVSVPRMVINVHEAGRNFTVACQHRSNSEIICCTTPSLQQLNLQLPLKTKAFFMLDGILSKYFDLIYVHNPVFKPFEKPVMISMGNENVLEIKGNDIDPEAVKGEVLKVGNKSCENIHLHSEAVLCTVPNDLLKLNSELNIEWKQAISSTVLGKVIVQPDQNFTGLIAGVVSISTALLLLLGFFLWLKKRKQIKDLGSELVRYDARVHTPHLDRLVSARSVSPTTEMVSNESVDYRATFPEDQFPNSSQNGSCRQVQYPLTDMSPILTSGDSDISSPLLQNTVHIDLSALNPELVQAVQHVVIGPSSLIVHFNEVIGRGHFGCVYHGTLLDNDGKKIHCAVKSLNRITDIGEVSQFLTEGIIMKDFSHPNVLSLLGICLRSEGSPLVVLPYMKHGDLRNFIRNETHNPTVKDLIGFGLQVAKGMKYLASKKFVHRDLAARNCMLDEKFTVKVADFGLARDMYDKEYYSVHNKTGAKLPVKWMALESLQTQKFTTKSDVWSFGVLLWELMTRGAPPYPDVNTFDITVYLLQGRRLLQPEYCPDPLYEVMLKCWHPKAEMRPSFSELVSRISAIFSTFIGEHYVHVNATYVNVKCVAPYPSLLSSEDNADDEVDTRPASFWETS

[12] = biological target: T2, MAP/microtubule affinity-regulating kinase 4 (Homo sapiens) (UniProt Q96L34); assay: Selectivity interaction (Kinase panel (Carna Biosciences)) EUB0001542aTs MARK4; conditions: at 1 µM
T2 sequence (whole entry): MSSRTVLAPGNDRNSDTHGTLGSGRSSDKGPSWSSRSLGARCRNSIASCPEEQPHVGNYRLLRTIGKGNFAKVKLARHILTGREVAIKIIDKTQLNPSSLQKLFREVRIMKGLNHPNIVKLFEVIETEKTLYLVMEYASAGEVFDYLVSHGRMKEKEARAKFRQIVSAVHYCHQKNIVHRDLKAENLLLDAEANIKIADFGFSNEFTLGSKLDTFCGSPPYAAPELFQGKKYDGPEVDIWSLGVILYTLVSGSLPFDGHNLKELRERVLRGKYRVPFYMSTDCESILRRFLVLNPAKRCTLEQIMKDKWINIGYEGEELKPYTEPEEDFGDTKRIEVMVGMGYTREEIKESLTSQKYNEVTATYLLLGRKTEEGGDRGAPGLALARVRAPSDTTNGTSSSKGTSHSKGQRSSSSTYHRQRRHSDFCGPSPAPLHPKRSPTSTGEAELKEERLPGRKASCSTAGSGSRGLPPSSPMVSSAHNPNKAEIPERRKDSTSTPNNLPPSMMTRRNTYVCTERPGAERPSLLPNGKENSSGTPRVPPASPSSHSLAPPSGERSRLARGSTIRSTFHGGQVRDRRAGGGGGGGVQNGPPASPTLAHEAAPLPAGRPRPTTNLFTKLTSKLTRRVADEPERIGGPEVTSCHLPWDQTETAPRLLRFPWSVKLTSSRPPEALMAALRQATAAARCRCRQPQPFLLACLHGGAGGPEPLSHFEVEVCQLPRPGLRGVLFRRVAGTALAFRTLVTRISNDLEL

[13] = biological target: [Pyruvate dehydrogenase (acetyl-transferring)] kinase isozyme 1, mitochondrial (Homo sapiens, UniProt Q15118); assay: Selectivity interaction (Kinase panel (Z-LYTE Assay)) EUB0001632a PDK1; conditions: at 10 µM

Chain of 5-hydroxytryptamine receptor 5A (Homo sapiens) (P47898 whole entry): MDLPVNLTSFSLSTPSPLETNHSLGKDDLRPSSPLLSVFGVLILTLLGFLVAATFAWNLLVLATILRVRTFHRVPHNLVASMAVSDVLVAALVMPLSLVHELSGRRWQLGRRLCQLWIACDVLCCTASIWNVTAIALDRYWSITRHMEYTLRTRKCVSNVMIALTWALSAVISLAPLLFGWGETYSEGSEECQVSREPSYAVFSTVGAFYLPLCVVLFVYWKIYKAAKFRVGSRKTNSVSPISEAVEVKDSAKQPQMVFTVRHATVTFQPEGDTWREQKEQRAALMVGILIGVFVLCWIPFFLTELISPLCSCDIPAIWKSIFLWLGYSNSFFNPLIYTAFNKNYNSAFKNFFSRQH
Chain of Serine/threonine-protein kinase B-raf (Homo sapiens), P15056 [V600E] (P15056 whole entry V600E): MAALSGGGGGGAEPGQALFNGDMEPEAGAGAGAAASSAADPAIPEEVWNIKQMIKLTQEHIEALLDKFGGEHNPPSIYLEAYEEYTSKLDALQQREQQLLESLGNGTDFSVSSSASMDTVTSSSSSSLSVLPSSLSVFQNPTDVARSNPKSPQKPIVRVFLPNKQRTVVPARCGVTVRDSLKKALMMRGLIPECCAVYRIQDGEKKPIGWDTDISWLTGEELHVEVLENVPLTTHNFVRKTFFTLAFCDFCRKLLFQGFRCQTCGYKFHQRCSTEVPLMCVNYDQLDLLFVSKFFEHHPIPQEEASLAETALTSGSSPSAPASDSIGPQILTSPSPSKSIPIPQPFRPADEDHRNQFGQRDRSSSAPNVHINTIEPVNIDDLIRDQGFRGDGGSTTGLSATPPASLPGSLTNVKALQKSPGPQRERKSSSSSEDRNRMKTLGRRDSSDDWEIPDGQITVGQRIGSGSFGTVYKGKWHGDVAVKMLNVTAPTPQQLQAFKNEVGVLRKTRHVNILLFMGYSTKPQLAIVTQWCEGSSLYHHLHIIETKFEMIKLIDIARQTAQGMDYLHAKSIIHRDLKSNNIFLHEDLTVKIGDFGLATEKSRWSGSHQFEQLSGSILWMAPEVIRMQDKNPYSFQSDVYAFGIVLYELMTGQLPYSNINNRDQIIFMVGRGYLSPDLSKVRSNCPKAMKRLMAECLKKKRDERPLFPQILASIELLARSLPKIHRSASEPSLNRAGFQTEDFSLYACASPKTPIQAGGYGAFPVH

% of control [1]: 100%
Structure (SMILES): CCN(CC)CCCCNc1ncc2cc(-c3cc(OC)cc(OC)c3)c(NC(=O)NC(C)(C)C)nc2n1

Structure (SMILES): Nc1cnc(N2CCc3cc(S(=O)(=O)Nc4c(F)cc(Cl)cc4F)cc(N4CCCC4=O)c32)nc1 [TP-020n]
% of inhibition [2]: -4.87%

Structure (SMILES): N#Cc1cccc(-c2c[nH]c3ncnc(N4CCOCC4)c23)c1
% of inhibition [3]: 46%

Structure (SMILES): CC(C)(O)[C@H](F)CN1Cc2cc(NC(=O)c3cnn4cccnc34)c(N3CCOCC3)cc2C1=O
EC50 [4]: > 50 µM

Structure (SMILES): COCC(=O)NC/C=C/c1ccc2ncnc(Nc3ccc(Oc4ccc(C)nc4)c(C)c3)c2c1 [CP-724714]
% of control [5]: 65% | % of control [6]: 97%

% of inhibition [7]: -8.5% | % of inhibition [8]: -15.2%
Structure (SMILES): CC[C@@H]1[C@H](F)C(=O)N[C@@H]1COc1nccc2cc(C(N)=O)c(OC)cc12 [ZIMLOVISERTIB]

Structure (SMILES): COc1cc(N(C)c2ccnc3ccc(C(F)(F)F)cc23)cc(OC)c1OC
% binding [9]: 98%

Structure (SMILES): COc1cc(Nc2nc(C)cc(-c3cnn4nc(OC)ccc34)n2)cc(C(F)(F)F)c1
% of control [10]: 84%

IC50 [11]: > 10 µM
Structure (SMILES): CCC(=O)N1CC[C@H](Nc2ncnc3c2CN(c2cnc(OC)c(C(F)(F)F)c2)CC3)C1 [LENIOLISIB]

% of inhibition [12]: 59%
Structure (SMILES): Cn1cc(Nc2nccc(N3CC4CCC(C3)N4C(=O)[C@@H]3CC3(F)F)n2)cn1

% of control [13]: 9.23%
Structure (SMILES): Cn1cc(-n2cnc3c(NCc4nc5cc(Cl)c(Cl)cc5[nH]4)nc(N4CCOCC4)nc32)cn1
